This note sets out measurements from US10562893B2, “Benzimidazoles derivatives as Tec kinases family inhibitors” (GB005, Inc., priority 2015, dated 2020).

Each structure is given as a SMILES string.

One assay concerns the target RLK/TXK (Homo sapiens (Human), UniProt P42681). Kind of assay: RLK/TXK kinase inhibition assay. The conditions noted are these: micro-fluidic detection, 3 hours at 25° C. The assay is classed as biochemical. How it is done: The in vitro kinase assays were performed at Nanosyn utilizing micro-fluidic detection technology. The test compounds were serially pre-diluted in DMSO and added, by the acoustic dispensing (Labcyte® 550), directly to 384well assay plates into 10 uL of a buffer with enzyme comprising: 100 mM HEPES, pH7.5, 5 mM MgCl2, 0.1% bovine serum albumin, 1 mM DTT, 0.01% Triton X-100 and the enzyme. Final DMSO concentration was maintained at 1% in all samples, including the controls. The reactions were initiated by addition of ATP (to the specified concentration) and the fluorescently labeled peptide substrate to a final concentration of 1 uM, and incubated for 3 hours at 25° C. Following incubation, the reactions were quenched by addition of 40 μL of termination buffer (100 mM HEPES, pH7.5, 0.01% Triton X-100, 50 mM EDTA). Terminated plates were analyzed using Caliper LabChip® 3000 microfluidic electrophoresis instrument (Caliper Life Sciences/Perkin Elmer). The enzymatic modification of the peptide substrate (phosphorylation) results in a change of net charge enabling electrophoretic separation of product from substrate. As substrate and product are separated by electrophoresis, two peaks of fluorescence are observed. Change in the relative fluorescence intensity of the substrate and product peaks was the parameter measured, reflecting enzyme activity. In the presence of inhibitor, the ratio between product and substrate is altered: signal of the product decreases, while the signal of the substrate increases. Activity in each test sample was determined as the product to sum ratio (PSR): P/(S+P), where P is the peak height of the product and S is the peak height of the […]. For each compound, enzyme activity was measured at 12 concentrations spaced by 3× dilution intervals. Negative control samples (0%-inhibition in the absence of inhibitor, DMSO only) and positive control samples (100%-inhibition, in the absence of enzyme or in the presence of control inhibitor) were assembled in replicates of four and were used to calculate %-inhibition values in the presence of compounds. Percent inhibition (Pinh) was determined using the following equation: Pinh=(PSR0%−PSRinh)/(PSR0%−PSR100%)*100, where PSRinh is the product sum ratio in the presence of inhibitor, PSR0% is the product sum ratio in the absence of inhibitor and PSR100% is the product sum ratio in 100%-inhibition control samples. To determine IC50 values, the inhibition curves (Pinh versus inhibitor concentration) were fitted by 4 parameter sigmoid dose-response model using XLfit software (IDBS).

Another assay relates to Human PBMCs. Briefly: CD3/CD28 mediated PBMC proliferation assay. The assay is classed as cell-based. The following applies: proliferation of human PBMCs stimulated with anti-CD3 and anti-CD28, 72 hours, Cell Titer-Glo. A digest of the protocol: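 PBMCs pre-treated 30 min with compound, then stimulated on plate-bound anti-CD3 (coated at 5 μg/mL) plus soluble anti-CD28 (2 μg/mL final) for 72 h at 37 °C. Proliferation measured as ATP by CellTiter-Glo; EC50 versus vehicle controls from dose-response curves.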
A general note: In ATP-based viability assays light output follows the ATP content of the culture.

Sequence of RLK/TXK (P42681 whole entry): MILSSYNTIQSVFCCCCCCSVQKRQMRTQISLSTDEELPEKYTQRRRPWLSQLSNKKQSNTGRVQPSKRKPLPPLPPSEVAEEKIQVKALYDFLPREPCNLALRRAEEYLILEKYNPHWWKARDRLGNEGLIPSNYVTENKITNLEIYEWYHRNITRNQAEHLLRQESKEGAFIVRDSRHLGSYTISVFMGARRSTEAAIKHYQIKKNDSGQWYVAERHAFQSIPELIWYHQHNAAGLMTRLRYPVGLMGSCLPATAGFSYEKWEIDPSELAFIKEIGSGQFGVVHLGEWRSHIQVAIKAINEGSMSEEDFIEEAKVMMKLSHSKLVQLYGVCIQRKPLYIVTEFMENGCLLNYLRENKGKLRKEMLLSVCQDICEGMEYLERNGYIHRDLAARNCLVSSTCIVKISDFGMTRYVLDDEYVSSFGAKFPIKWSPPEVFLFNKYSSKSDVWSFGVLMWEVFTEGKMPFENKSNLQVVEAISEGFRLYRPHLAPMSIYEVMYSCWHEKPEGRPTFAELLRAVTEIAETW

The EC50 is the concentration at which the effect is half-maximal. For the compound `C=CC(=O)Nc1cccc(-n2c(NC(=O)c3ccnn3C)nc3cc(CN[C@@H](C)C(C)(C)C)ccc32)c1` [Compound 28], the EC50 at RLK/TXK is less than 10 nM; in the assay on Human PBMCs it was 10 to 100 nM.
As for `C=CC(=O)Nc1cccc(-n2c(NC(=O)c3ccc(C(F)F)s3)nc3cc(CN[C@@H](C)C(C)(C)C)ccc32)c1` [Compound 2], the EC50 at RLK/TXK is less than 10 nM; in the assay with Human PBMCs, 10 to 100 nM.
Take `C=CC(=O)Nc1cccc(-n2c(NC(=O)c3ccno3)nc3cc(CN[C@@H](C)C(C)(C)C)ccc32)c1` [Compound 38]: the EC50 on RLK/TXK was less than 10 nM; with Human PBMCs, 10 to 100 nM.
The like results for `C=CC(=O)Nc1cccc(-n2c(NC(=O)c3ccc(-c4cnco4)s3)nc3cc(CN[C@@H](C)C(C)(C)C)ccc32)c1` [Compound 25] were, in that order, less than 10 nM and less than 10 nM.
Take `C=CC(=O)Nc1cccc(-n2c(NC(=O)c3cccc(C#N)c3)nc3cc(CN[C@@H](C)C(C)(C)C)ccc32)c1` [Compound 9]: the EC50 on RLK/TXK was less than 10 nM; with Human PBMCs, 10 to 100 nM.
